US6339062B1, “Retroinverso polypeptides that mimic or inhibit thrombospondin activity” (Inkine Pharmaceutical Company, Inc., priority 1998, dated 2002)
Bridges are numbered along the chain shown (N, C = ends). Where no end group is shown, it is not given here.

Tests used:
[1] = tested on: MMP-9 production in BAE cells; experiment: TSP-1-stimulated endothelial MMP-9 production (Example 27); assay type: cell-based; settings: for Relative MMP-9 Levels / % inhibition (MMP-9): with 15 μg/ml TSP-1; for inhibited MMP-9 production: at high doses
Procedure: BAE cells were treated with TSP-1 as described in Example 27. MMP-9 levels were quantitated from densitometry of the zymograms prepared from the BAE cell conditioned media. The control was 15 μg/ml TSP-1. All other treatments were performed in the presence of 15 μg/ml TSP-1.

[2] = tested on: mouse B16-F10 melanoma cells; experiment: Direct adhesion to dried peptide (Example 31); assay type: cell-based; settings: 10 μg of each peptide; one hour; FIG. 20
Procedure: Peptide effect on direct adhesion was tested by drying 10 μg of each peptide on the bottom of a 96well microtiter plate. Plates were blocked with BSA. Mouse B16-F10 melanoma cells (50,000) were plated in each well and allowed to attach for one hour. Non-adherent cells were aspirated out, plates rinsed, and adherent cells were fixed, stained, and counted. The error bars represent the standard deviation.

[3] = tested on: mouse B16-F10 melanoma cells; experiment: Boyden chamber assay, TSP-1 mediated invasion of collagen (Examples 29, 30); assay type: cell-based; settings: for inhibition of TSP-1 mediated invasion: 500 μg/ml peptide top chamber, 20 μg/ml TSP-1 bottom chamber, 6 hours, FIG. 18
Procedure: Cell invasion was investigated by the Boyden Chamber Invasion Assay using the modified Boyden chamber. T. Frandsen et al., Fibrinolysis, 6: 71-76 (1992). Polycarbonate filters, 12 μm pore size, e.g., Millicell, Millipore Corporation, Bedford, Ma, were coated with 100 μg Type IV collagen (1 mg/ml 60% EtOH) and dried overnight at 25° C. Blind-well Boyden chambers are filled with 600 μl of serum-free media containing 0.1% BSA in the lower compartment, and the coated filters will be mounted in the chamber. Approximately 50,000 cells (tested to be greater than 95% viable) suspended in 400 μl of the same media will be placed in the upper chamber of the apparatus and allowed to settle onto the collagen-coated membrane. Varying concentrations of TSP-1 (0-150 nM) will be placed in the lower compartment and any neutralizing antibodies as well as peptides will be placed in the upper chamber. After an incubation period of about 3 to 6 hours at 37° C., the cells on the upper surface of the filter will be removed with a cotton swab. The filters are then fixed in 3% glutaraldehyde solution and stained with 0.5% crystal violet solution. Invasive cells adhering to the under-surface of the filter are counted using a phase contrast microscope (400×).
Using this assay, mouse B16-F10 melanoma cells (50,000) were plated on the collagen-coated disk of the Boyden chamber apparatus. The top chamber contained melanoma cells in the presence of 500 μg/ml of the TSP-1 derived peptide and the bottom chamber contained 20 μg/ml TSP-1. After 6 hours, cells traversing the collagen were counted as cells attached to the underside of the collagen-coated disk. Five representative fields per chamber in duplicate were counted. The data shown in FIG. 18 represents the average per field and the error bars represent the standard deviation. The scrambled peptide, Val-Cys-Thr-Gly-Ser-Cys (SEQ ID NO: 7), the irrelevant peptide, Ala-Ser-Val-Thr-Ala-Arg (SEQ ID NO: 38), buffer, and the d-amino acid Cys-Ser-Val-Thr-Cys-Gly (SEQ ID NO: 40) had no effect on invasion.
The experiments were performed as described for Example 29. […] In contrast, d-Cys-Ser-Val-Thr-Cys-Gly (SEQ ID NO: 40) had no effect.

[4] = tested on: mouse B16-F10 melanoma cells; experiment: Melanoma tumor cell metastasis, peptide i.v. (Example 21); assay type: in vivo, mice; settings: 1 mg peptide i.v. shortly before or after tumor implantation; two weeks; FIG. 12
Text: Mice were sacrificed two weeks later and lung tumors counted. Treatment groups consisted of five animals. The photograph of FIG. 12 depicts three lungs from each treatment group. The black spots are melanoma tumors. All metastasis experiments were repeated 2-3 times showing qualitatively similar results depicted in the bar graph of FIG. 12.

[5] = tested on: platelets; experiment: Direct platelet adhesion assay (Example 18); assay type: cell-based; settings: wells treated with 50 μl of 40 μg/ml
Procedure: The number of adherent platelets was essentially determined as previously described (Tuszynski et al., Anal. Bio., supra). Briefly, 100 μl of 5×10^8 platelets/ml washed as previously described (Tuszynski, et al., Blood, 72:109-225 (1988)) were added to microtiter plates, the wells of which were treated with 50 μl of a 40 μg/ml peptide or protein solution (Hepes buffered saline, pH 7.4). Solutions were dried at room temperature after incubation in a fume hood for two hours. Wells were blocked for one hour with 1% BSA. Platelets (100 μl) were incubated in the wells for 30 minutes and non-adherent platelets were removed by aspiration. Wells were washed 3× with 200 μl of Hepes buffered saline, pH 7.4. The number of adherent platelets was determined by measuring the platelet-derived protein using the BCA protein assay.

[6] = tested on: Mouse B16 F10 melanoma cells; experiment: Direct adhesion assay (Example 16); assay type: cell-based; settings: absorbed compound 2 μg
Procedure: It is believed that thrombospondin acts in metastasis through its adhesive properties. An assay was developed, generally in accordance with the disclosure of Tuszynski et al., Anal. Bio., 184:189-91 (1990), which evaluates the ability of melanoma cells to adhere to the thrombospondin fragments or analogs of the invention. In this assay, wells of a 96-well microtiter dish (Costar, Cambridge, Mass.) were incubated for two to three hours with […] of a […] solution of various ligands in 20 mM NaCl, pH 7.3. Thrombospondin (purified by the method of Tuszynski et al., J. Biol. Chem., 260:12240-5 (1985), fibronectin (Sigma Chemical Co., Missouri) served as the positive control. Bovine serum albumin (BSA) (Sigma Chemical Co.) served as the negative control. Thrombospondin analogs of the invention p1, p5 and p6 were synthesized as described in Examples 1 through 3. Following peptide adhesion to the microtiter dish, the wells were aspirated, treated with 200 μl phosphate buffered saline (PBS) containing 1% BSA for 1 hour and then washed three more times with 200 μl PBS.
Mouse B16 F10 melanoma cells were grown and harvested during log phase of growth using standard procedures. The harvested cells were washed two times in serum-free Dulbecco's minimum essential medium (DMEM) (Flow Laboratories) and suspended in DMEM at a final concentration of 4×10^5 cells/ml. Of the cell suspension 100 μl was added to each well of the microtiter dish containing the various ligands and the dish incubated at 37° C. in a CO2 incubator for 1 hour. Nonadherent cells were removed by aspiration and the wells washed three times with 200 μl of PBS. The total cell-associated protein was determined by dissolving the attached cells directly in the microtiter wells with 200 μl of the Pierce BCA working solution (Pierce Chem. Co. Booklet No. 23225 (1987)). […] Plates were allowed to cool to room temperature, cover sheets were removed, and the absorbance of each well was determined at 562 nm with a microtiter plate reader (Biotek, Burlington, Vt.)

[7] = tested on: platelets on absorbed fibronectin (FN); experiment: Competitive platelet adhesion assay, absorbed fibronectin (Example 19); assay type: cell-based; settings: 250 μg/ml; absorbed protein FN
Procedure: (§1) The direct adhesion assay of Example 18 was modified to measure the ability of the peptide compounds of the invention to compete with intact thrombospindin or fibronectin for adhesion of platelets.
(§2) In this assay, thrombospondin (TSP) or fibronectin (FN) was absorbed onto microtiter dish as described in Example 18. The assay was similar to Example 18 except that before platelets were added to the microtiter dishes they were preincubated with 250 μg/ml of various ligands.

[8] = tested on: platelets on absorbed thrombospondin (TSP); experiment: Competitive platelet adhesion assay, absorbed thrombospondin (Example 19); assay type: cell-based; settings: 250 μg/ml; absorbed protein TSP
Procedure: as §1, §2

[9] = tested on: B16 F10 mouse melanoma cells; experiment: Antimetastatic activity in vivo (Example 20); design: species or system C57 black mice; settings: 16 days
[10] = tested on: melanoma cells on absorbed thrombospondin; experiment: Competitive assay, thrombospondin specific adhesion to melanoma cells (Example 17); assay type: cell-based, mouse
Text: The direct adhesion assay of Example 16 was modified to measure the ability of the peptide compounds of the invention to compete with intact thrombospondin for adhesion to melanoma cells.
In this assay, intact thrombospondin is absorbed onto microtiter dishes as described in Example 16. […]

[11] = tested on: platelets (platelet-rich-plasma); experiment: Platelet aggregation assay in platelet-rich-plasma (Example 8); assay type: cell-based; settings: in vitro; FIG. 22
Procedure: Platelet aggregation was monitored on a single-channel aggregometer equipped to measure luminescence (Chromo-Log, Havertown, Pa.). Platelet-rich-plasma (PRP) was obtained from whole blood anticoagulated with 0.38% sodium citrate by centrifugation at 150×g for 20 minutes.
0.5 ml aliquots of platelet-rich-plasma were aggregated by stirring with 2 uM ADP in the presence of various concentrations of Cys-Ser-Val-Thr-Cys-Gly (SEQ ID NO: 21) and Gly-Arg-Gly-Asp-Ser (SEQ ID NO: 36). Aggregation was measured at 37° as decrease in optical absorbance vs. time in a chrono-log aggregometer and is shown in FIG. 8. Peptides designated in each panel are represented by their amino acid sequence using the one letter amino acid code.

For ASVTAR [irrelevant peptide], the “Relative MMP-9 Levels” value ([1]; 0.20 mM) was 0.78, the “inhibited MMP-9 production” value [1] was “no effects” and the “adhesion of cells to dried peptide” value [2] was “did not promote adhesion”. For the same substance, the “inhibition of TSP-1 mediated invasion” value [3] was “no effect”.

Arg-Gly-Asp was tested, and the “% inhibition (MMP-9)” value ([1]; 0.50 mM) was 0%, the “Relative MMP-9 Levels” value ([1]; 0.50 mM) was 1.03 and the “inhibited MMP-9 production” value [1] was “no effects”.

In the case of “CSTSCG (cysteine pairing not given here)”, the “melanoma cell metastasis (lung tumors)” value [4] is reported as “significantly blocked”.

“Cys-Ser-Val-Thr-Cys-Gly (disulfide linked) (CSVTCG; disulfide 1-5 (inferred)) [cyclic Cys-Ser-Val-Thr-Cys-Gly]” was tested, and the “melanoma cell metastasis (lung tumors)” value [4] was “significantly blocked”.

Heparin was tested, and the “% inhibition (MMP-9)” value ([1]; 50 μg/ml) was 6%, the “Relative MMP-9 Levels” value ([1]; 50 μg/ml) was 0.94 and the “% inhibition (MMP-9)” value ([1]; 500 μg/ml) was 55%. The “Relative MMP-9 Levels” value ([1]; 500 μg/ml) was 0.45, the “% inhibition (MMP-9)” value ([1]; 1000 μg/ml) was 50% and the “Relative MMP-9 Levels” value ([1]; 1000 μg/ml) was 0.50. For the same substance, the “inhibited MMP-9 production” value [1] was 50%.

“Thrombospondin: purified thrombospondin, positive control [reference compound]” was tested, and the “Adherence as % Control (adherent platelets)” value (shortened to “Adherence as % Control”) [5] was 100% and the “Adhesion as % Thrombospondin” value [6] was 100%.

“Trp-Ser-Pro-Cys-Ser-Val-Thr-Cys-Gly-NH2 (WSPCSVTCG-NH2; cysteine pairing not given here) [p6]” was tested, and the “% Buffer Control (platelet adhesion)” value [7] was 96%, the “% Buffer Control (platelet adhesion)” value [8] was 98% and the “% buffer control (number of lung tumors)” value ([9]; 30 μg/mouse) was 91%. The “% buffer control (number of lung tumors)” value ([9]; 100 μg/mouse) was 102%, the “% buffer control (number of lung tumors)” value ([9]; 300 μg/mouse) was 50% and the “number of tumors compared with controls” value [9] was “statistically fewer tumors than controls”. The “size of lung tumors” value [9] was “smaller in size”, the “% of Buffer Control (melanoma cell adhesion to thrombospondin)” value (“% of Buffer Control” below) ([10]; 200 μg/ml) was 74% and the “% of Buffer Control” value ([10]; 300 μg/ml) was 74%. For the same substance, the platelet aggregation [11] was “inhibit platelet aggregation”.

“VCTGSC (cysteine pairing not given here) [scrambled peptide control, reference compound]” was tested, and the “adhesion of cells to dried peptide” value [2] was “did not promote adhesion” and the “inhibition of TSP-1 mediated invasion” value [3] was “no effect”.

For “WSPCSVTCG (cysteine pairing not given here) [p1]”, the “Adherence as % Control” value [5] was “adhere to platelets”, the “Adherence as % Control” value ([5]; listed as P1) was 39% and the “% buffer control (number of lung tumors)” value ([9]; 30 μg/mouse) was 49%. For the same substance, the “number of tumors compared with controls” value [9] was “statistically fewer tumors than controls”, the “size of lung tumors” value [9] was “smaller in size” and the “% of Buffer Control” value ([10]; 10 μg/ml) was 49%. The “% of Buffer Control” value ([10]; 50 μg/ml) was 40% and the platelet aggregation [11] was “inhibit platelet aggregation”.

In the case of d-Gly-Cys-(Acm)-Thr-Val-Ser-Cys-(Acm), the “adhesion of cells to dried peptide” value [2] is reported as “half as well as fibronectin and TSP-1” and the “dose-dependent effect on melanoma cell invasion” value ([3]; FIG. 19) is reported as “same dose-dependent inhibition”.

In the case of fibronectin [reference compound], the “Adherence as % Control” value [5] is reported as 83%.
